Measured values: PubChem BioAssay AID248 (DTP/NCI, 2004)
Several values for one entry are separate records, joined by “and”; a condition that tells them apart may be missing. Equal entries are not always repeated. Inconclusive results and toxic doses are left out. Cut-off read from the data, not from the text of the source: active = T/C of 150% or more; inactive = T/C below 125%.

System: L1210 leukemia ip in BDF1 mice, survival T/C
Test: NCI In Vivo Anticancer Drug Screen. Data for tumor model L1210 Leukemia (intraperitoneal) in B6D2F1 (BDF1) mice
Conditions: endpoint: mean survival time, higher = longer survival
Method in brief: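 Read-out is survival time, reported as the treated-group measurement over the vehicle-control measurement.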

[1] = dose: 100.0 mg/kg/injection, schedule: Q01DX009 (ip), vehicle: saline
[2] = dose: 200.0 mg/kg/injection, schedule: Q01DX009 (ip), vehicle: saline
[3] = dose: 400.0 mg/kg/injection, schedule: Q01DX009 (ip), vehicle: saline
[4] = dose: 25.0 mg/kg/injection, schedule: Q01DX009 (ip), vehicle: saline with Tween-80
[5] = dose: 50.0 mg/kg/injection, schedule: Q01DX009 (ip), vehicle: saline with Tween-80
[6] = dose: 50.0 mg/kg/injection, schedule: Q01DX009 (ip), vehicle: Klucel (hydroxypropylcellulose) (HPC)
[7] = dose: 100.0 mg/kg/injection, schedule: Q01DX009 (ip), vehicle: Klucel (hydroxypropylcellulose) (HPC)
[8] = dose: 200.0 mg/kg/injection, schedule: Q01DX009 (ip), vehicle: Klucel (hydroxypropylcellulose) (HPC)
[9] = dose: 100.0 mg/kg/injection, schedule: Q04DX003 (ip), vehicle: saline
[10] = dose: 200.0 mg/kg/injection, schedule: Q04DX003 (ip), vehicle: saline
[11] = dose: 400.0 mg/kg/injection, schedule: Q04DX003 (ip), vehicle: saline
[12] = dose: 100.0 mg/kg/injection, schedule: Q01DX001 (ip), vehicle: saline
[13] = dose: 200.0 mg/kg/injection, schedule: Q01DX001 (ip), vehicle: saline
[14] = dose: 400.0 mg/kg/injection, schedule: Q01DX001 (ip), vehicle: saline

Measured: T/C

CCN(c1ccccc1P(c1ccccc1)c1ccccc1)c1ccccc1P(c1ccccc1)c1ccccc1
inactive: dose: 25.6 mg/kg/injection, schedule: Q04DX002 (ip), vehicle: saline with Tween-80 89 % of control | dose: 64.0 mg/kg/injection, schedule: Q04DX002 (ip), vehicle: saline with Tween-80 89 % of control | dose: 160.0 mg/kg/injection, schedule: Q04DX002 (ip), vehicle: saline with Tween-80 89 % of control | dose: 400.0 mg/kg/injection, schedule: Q04DX002 (ip), vehicle: saline with Tween-80 89 % of control

CC(C)N(C(=S)S)C(C)C
inactive: [1] 105 % of control | [2] 102 % of control | [3] 103 % of control

C#CC(CC(C)CC(C)(C)C)N(C)C (stereo not drawn)
inactive: [4] 92 % of control | [5] 92 % of control | dose: 100.0 mg/kg/injection, schedule: Q01DX009 (ip), vehicle: saline with Tween-80 101 % of control

COC(=O)c1[nH]ncc1N=NN(C)C
inactive: dose: 176.0 mg/kg/injection, schedule: Q01DX001 (ip), vehicle: carboxymethylcellulose (CMC) 111 % of control | dose: 264.0 mg/kg/injection, schedule: Q01DX001 (ip), vehicle: carboxymethylcellulose (CMC) 120 % of control | dose: 400.0 mg/kg/injection, schedule: Q01DX001 (ip), vehicle: carboxymethylcellulose (CMC) 113 % of control

CC(=O)CCCC(C)C1CCC2[C@H]3CC=C4C[C@H](O)CC[C@@]4(C)C3CC[C@@]12C (stereo partly drawn)
inactive: [6] 96 % of control | [7] 100 % of control | [8] 102 % of control

CC(C)CC(NC(=O)CN)C(=O)O (stereo not drawn)
inactive: [9] 107 % of control | [10] 104 % of control | [11] 107 % of control

CCn1c(=O)oc2ccccc2c1=S
inactive: [9] 100 % of control | [10] 96 % of control

O=S(=O)(C(Cl)Cl)C(Cl)(Cl)S(=O)(=O)C(Cl)Cl
inactive: dose: 25.0 mg/kg/injection, schedule: Q01DX009 (ip), vehicle: Klucel (hydroxypropylcellulose) (HPC) 96 % of control | [6] 102 % of control | [7] 94 % of control and 90 % of control

c1ccc([P+](c2ccccc2)(c2ccccc2)C2CN=NC2)cc1
inactive: dose: 10.0 mg/kg/injection, schedule: Q01DX001 (ip), vehicle: saline 103 % of control | dose: 20.0 mg/kg/injection, schedule: Q01DX001 (ip), vehicle: saline 108 % of control | dose: 40.0 mg/kg/injection, schedule: Q01DX001 (ip), vehicle: saline 112 % of control

CC(C)=CCC(=O)OC(CC=C(C)C)(c1ccccc1)C(C)CN(C)C (stereo not drawn)
inactive: dose: 25.0 mg/kg/injection, schedule: Q01DX009 (ip), vehicle: saline 100 % of control | dose: 50.0 mg/kg/injection, schedule: Q01DX009 (ip), vehicle: saline 90 % of control | [1] 89 % of control

O=c1[nH]nc(CCc2ccccc2)o1
inactive: [12] 97 % of control | [9] 98 % of control | [13] 92 % of control | [10] 93 % of control | [14] 95 % of control | [11] 113 % of control

CC1=C(O)c2ccccc2C(=O)C1=O
inactive: dose: 50.0 mg/kg/injection, schedule: Q01DX Z (ip), vehicle: other 93 % of control

O=C(Nc1ccc(C(=O)CCl)cc1)Nc1ccc(C(=O)CCl)cc1
inactive: dose: 100.0 mg/kg/injection, schedule: Q01DX005 (ip), vehicle: saline 100 % of control | [9] 101 % of control | dose: 200.0 mg/kg/injection, schedule: Q01DX005 (ip), vehicle: saline 102 % of control | [10] 104 % of control | dose: 400.0 mg/kg/injection, schedule: Q01DX005 (ip), vehicle: saline 103 % of control | [11] 93 % of control

ClCc1c2ccccc2c(CCl)c2ccccc12
inactive: dose: 0.9 mg/kg/injection, schedule: Q01DX009 (ip), vehicle: saline with Tween-80 118 % of control | dose: 1.35 mg/kg/injection, schedule: Q01DX009 (ip), vehicle: saline with Tween-80 120 % of control | dose: 2.05 mg/kg/injection, schedule: Q01DX009 (ip), vehicle: saline with Tween-80 111 % of control | dose: 2.08 mg/kg/injection, schedule: Q01DX009 (ip), vehicle: saline 120 % of control | dose: 3.12 mg/kg/injection, schedule: Q01DX009 (ip), vehicle: saline 111 % of control | dose: 4.0 mg/kg/injection, schedule: Q01DX009 (ip), vehicle: carboxymethylcellulose (CMC) 110 % of control | dose: 4.68 mg/kg/injection, schedule: Q01DX009 (ip), vehicle: saline with Tween-80 94 % of control | dose: 4.68 mg/kg/injection, schedule: Q01DX009 (ip), vehicle: saline 98 % of control | dose: 5.0 mg/kg/injection, schedule: Q01DX009 (ip), vehicle: carboxymethylcellulose (CMC) 121 % of control | dose: 6.2 mg/kg/injection, schedule: Q01DX015 (ip), vehicle: carboxymethylcellulose (CMC) 112 % of control | dose: 7.0 mg/kg/injection, schedule: Q01DX001 (ip), vehicle: saline 114 % of control | dose: 9.3 mg/kg/injection, schedule: Q01DX015 (ip), vehicle: carboxymethylcellulose (CMC) 106 % of control | dose: 14.0 mg/kg/injection, schedule: Q01DX001 (ip), vehicle: saline 104 % of control | dose: 14.0 mg/kg/injection, schedule: Q01DX015 (ip), vehicle: carboxymethylcellulose (CMC) 104 % of control | dose: 16.0 mg/kg/injection, schedule: Q01DX009 (ip), vehicle: carboxymethylcellulose (CMC) 119 % of control | dose: 20.0 mg/kg/injection, schedule: Q01DX009 (ip), vehicle: carboxymethylcellulose (CMC) 123 % of control | dose: 28.0 mg/kg/injection, schedule: Q01DX001 (ip), vehicle: saline 104 % of control | dose: 56.0 mg/kg/injection, schedule: Q01DX001 (ip), vehicle: saline 109 % of control | dose: 88.8 mg/kg/injection, schedule: Q01DX001 (ip), vehicle: saline 113 % of control | [12] 118 % of control | dose: 112.0 mg/kg/injection, schedule: Q01DX001 (ip), vehicle: saline 109 % of control | [13] 109 % of control | dose: 300.0 mg/kg/injection, schedule: Q01DX001 (ip), vehicle: saline 109 % of control | [14] 92 % of control

C=CC[Si](CC=C)(CC=C)OCC
inactive: dose: 150.0 mg/kg/injection, schedule: Q01DX001 (ip), vehicle: other 95 % of control | dose: 300.0 mg/kg/injection, schedule: Q01DX001 (ip), vehicle: other 101 % of control

CCCC/C=C(/C)C1(CC)C(=O)NC(=O)NC1=O
inactive: dose: 75.0 mg/kg/injection, schedule: Q01DX001 (ip), vehicle: saline 100 % of control and 98 % of control | dose: 150.0 mg/kg/injection, schedule: Q01DX001 (ip), vehicle: saline 93 % of control and 102 % of control

OC(c1ccccc1)(c1ccccc1)C1CCCCC1C(O)(c1ccccc1)c1ccccc1 (stereo not drawn)
inactive: [1] 93 % of control | [2] 93 % of control | [3] 89 % of control

CCCCN=Cc1cc([N+](=O)[O-])ccc1O.CCCCN=Cc1cc([N+](=O)[O-])ccc1O.[Ni]
inactive: dose: 12.5 mg/kg/injection, schedule: Q01DX009 (ip), vehicle: saline with Tween-80 98 % of control | [4] 94 % of control | [5] 86 % of control

COC(=O)N(C1CCCCC1)C1CCCCC1
inactive: [7] 97 % of control | [8] 96 % of control | dose: 400.0 mg/kg/injection, schedule: Q01DX009 (ip), vehicle: Klucel (hydroxypropylcellulose) (HPC) 100 % of control

CSc1ccnc2[nH]ncc12
inactive: dose: 100.0 mg/kg/injection, schedule: Q04DX002 (ip), vehicle: DMSO 94 % of control | dose: 200.0 mg/kg/injection, schedule: Q04DX002 (ip), vehicle: DMSO 105 % of control

O=C(OCC(OC(=O)c1ccccc1)C1OCOC2COCOC21)c1ccccc1 (stereo not drawn)
inactive: dose: 100.0 mg/kg/injection, schedule: Q01DX001 (ip), vehicle: Klucel (hydroxypropylcellulose) (HPC) 101 % of control | dose: 200.0 mg/kg/injection, schedule: Q01DX001 (ip), vehicle: Klucel (hydroxypropylcellulose) (HPC) 101 % of control | dose: 400.0 mg/kg/injection, schedule: Q01DX001 (ip), vehicle: Klucel (hydroxypropylcellulose) (HPC) 97 % of control

CCOC(=O)C(C)(C)Oc1ccc(O)cc1
inactive: dose: 100.0 mg/kg/injection, schedule: Q01DX001 (ip), vehicle: saline with Tween-80 105 % of control | dose: 200.0 mg/kg/injection, schedule: Q01DX001 (ip), vehicle: saline with Tween-80 105 % of control | dose: 400.0 mg/kg/injection, schedule: Q01DX001 (ip), vehicle: saline with Tween-80 97 % of control
